# Reference: article PMC9511441, “Semisynthetic teicoplanin derivatives with dual antimicrobial activity against SARS-CoV-2 and multiresistant bacteria” (Scientific Reports, 2022)
# Like-named read-outs stand apart in the source and are kept apart here.
# Assays:
# Format in all cases: cell-based
# SARS-CoV-2 pseudovirus [1] = test: microbe, parasite or virus in culture; settings: Vero cells, luciferase signal, mean ± SEM of 3 tests, read-out: EC50, inhibition of SARS-CoV-2 pseudovirus entry in Vero cells
# SARS-CoV-2 pseudovirus [2] = test: microbe, parasite or virus in culture; settings: A549-AT cells (ACE2 and TMPRSS2), luciferase signal, mean ± SEM of 3 tests, read-out: EC50, inhibition of SARS-CoV-2 pseudovirus entry in A549-AT cells
# S. haemolyticus = test: MIC, broth microdilution; settings: for MIC: Staphylococcus haemolyticus
# Text: (§1) We determined the minimal inhibitory concentrations (MIC) of the teicoplanin conjugates for a large panel of Gram-positive bacterial strains, using vancomycin, unmodified teicoplanin, dalbavancin and oritavancin as reference compounds. […] The bacterial strains (see Suppl. Table S5 for all details) were selected to achieve maximum diversity of multidrug-resistance and include strains with known mechanisms of resistance to glycopeptides in clinical use. The S. epidermidis and S. haemolyticus strains resistant to dalbavancin and oritavancin were obtained in vitro from clinical isolates sensitive to the glycopeptide antibiotics.
# E. faecalis = test: MIC, broth microdilution; settings: for MIC: Enterococcus faecalis
# Text: as §1
# S. aureus = test: MIC, broth microdilution; settings: for MIC: Staphylococcus aureus
# Text: as §1
# S.pyogenes = test: MIC, broth microdilution; settings: for MIC: Streptococcus pyogenes
# Text: as §1
# E. faecium = test: microbe, parasite or virus in culture; settings: for MIC: Enterococcus faecium
# Text: as §1
# S. epidermidis = test: microbe, parasite or virus in culture; settings: for MIC: Staphylococcus epidermidis
# Text: as §1
# [3] = Severe acute respiratory syndrome-related coronavirus
smiles,measurement,setting,value
"CN(C)C(=O)COC(=O)Cc1ccc(OC(=O)c2ccc(NC(=N)N)cc2)cc1 [Camostat, camostat, reference compound]",EC50,SARS-CoV-2 pseudovirus [1]; [3],> 20000 nM
same,EC50,SARS-CoV-2 pseudovirus [2]; [3],490 ± 50 nM
"CCOC(=O)[C@H]1O[C@@H]1C(=O)N[C@@H](CC(C)C)C(=O)NCCC(C)C [Compound E64d, reference compound]",EC50,SARS-CoV-2 pseudovirus [1],1300 ± 1200 nM
same,EC50,SARS-CoV-2 pseudovirus [2],> 20000 nM
"CN[C@H]1C(=O)N[C@@H]2Cc3ccc(cc3)Oc3cc4cc(c3O[C@@H]3O[C@H](C(=O)O)[C@@H](O)[C@H](O)[C@H]3NC(=O)CCCCCCCCC(C)C)Oc3ccc(cc3Cl)[C@@H](O)[C@@H]3NC(=O)[C@H](NC(=O)[C@@H]4NC(=O)[C@@H](NC2=O)c2cc(cc(O)c2Cl)Oc2cc1ccc2O)c1ccc(O)c(c1)-c1c(O[C@H]2O[C@H](CO)[C@@H](O)[C@H](O)[C@@H]2O)cc(O)cc1[C@@H](C(=O)NCCCN(C)C)NC3=O [DALB, dalbavancin, reference compound]",Average MIC value,"S. haemolyticus; S. haemolyticus mecA, 6 strains",3.83 µg/mL
same,MIC value,"S. haemolyticus; S.haemolyticus DALB_R1, mecA",2 µg/mL
same,MIC value,"S. haemolyticus; S.haemolyticus DALB_R2, mecA",8 µg/mL
same,MIC value,"S. haemolyticus; S.haemolyticus DALB_R3, mecA",2 µg/mL
same,MIC value,"S. haemolyticus; S.haemolyticus DALB_R4, mecA",2 µg/mL
same,MIC value,"S. haemolyticus; S.haemolyticus DALB_R5, mecA",1 µg/mL
same,MIC value,"S. haemolyticus; S.haemolyticus ORI_R1, mecA",8 µg/mL
same,Average MIC value,"E. faecalis; E. faecalis VAN^R,TEI^R/VanA, 1 strain",64 µg/mL
same,Average MIC value,"E. faecalis; E. faecalis VAN^S, TEI^S, 2 strains",0.25 µg/mL
same,MIC value,E. faecalis; E.faecalis JH2-2,"0,25 µg/ml"
same,MIC value,E. faecalis; E.faecalis OG1RF,"0,25 µg/ml"
same,MIC value,"E. faecalis; E.faecalis V583, VAN,TEI/VanA",64 µg/mL
same,MIC value,"S. aureus; S. aureus 73OL, MRSA","0,125 µg/ml"
same,MIC value,"S. aureus; S. aureus 214OL, MRSA","0,125 µg/ml"
same,MIC value,"S. aureus; S. aureus 1041OL, MRSA","0,03125 µg/ml"
same,MIC value,"S. aureus; S. aureus A6918, MRSA","0,125 µg/ml"
same,MIC value,"S. aureus; S. aureus A6919, MRSA","0,0625 µg/ml"
same,MIC value,"S. aureus; S. aureus ATCC29213, MSSA","0,125 µg/ml"
same,Average MIC value,"S. aureus; S. aureus CA-MRSA, 1 strain",0.0625 µg/mL
same,Average MIC value,"S. aureus; S. aureus MRSA, 7 strains",0.1 µg/mL
same,MIC value,"S. aureus; S. aureus MSSA476, MSSA","0,125 µg/ml"
same,Average MIC value,"S. aureus; S. aureus MSSA, 4 strains",0.125 µg/mL
same,MIC value,"S. aureus; S. aureus Mu50, MRSA","0,125 µg/ml"
same,MIC value,"S. aureus; S. aureus N315, MRSA","0,125 µg/ml"
same,MIC value,"S. aureus; S. aureus Newman, MSSA","0,125 µg/ml"
same,MIC value,"S. aureus; S. aureus SA564, MSSA","0,125 µg/ml"
same,MIC value,"S. aureus; S. aureus USA300, CA-MRSA","0,0625 µg/ml"
same,MIC value,S.pyogenes; S.pyogenes H232,"0,0625 µg/ml"
same,MIC value,S.pyogenes; S.pyogenes H550,"0,25 µg/ml"
same,MIC value,S.pyogenes; S.pyogenes H578,"0,25 µg/ml"
same,Average MIC value,"E. faecium; E. faecium VAN^R,TEI^R/VanA, 8 strains",48 µg/mL
same,Average MIC value,"E. faecium; E. faecium VAN^S, TEI^S, 1 strain",0.25 µg/mL
same,MIC value,"E. faecium; E.faecium E335, VAN,TEI,LNZ/VanA",64 µg/mL
same,MIC value,"E. faecium; E.faecium E355, VAN,TEI,LNZ/VanA",32 µg/mL
same,MIC value,"E. faecium; E.faecium E832, VAN,TEI,LNZ/VanA",64 µg/mL
same,MIC value,"E. faecium; E.faecium E854, VAN,TEI,LNZ/VanA",32 µg/mL
same,MIC value,"E. faecium; E.faecium E859, VAN,TEI,LNZ/VanA",32 µg/mL
same,MIC value,"E. faecium; E.faecium E1114, VAN,TEI,LNZ/VanA",64 µg/mL
same,MIC value,"E. faecium; E.faecium E1131, VAN,TEI,LNZ/VanA",64 µg/mL
same,MIC value,"E. faecium; E.faecium E1132, VAN,TEI,LNZ/VanA",32 µg/mL
same,MIC value,E. faecium; E.faecium TX0016,"0,25 µg/ml"
same,Average MIC value,"S. epidermidis; S. epidermidis mecA, 6 strains",1.77 µg/mL
same,MIC value,"S. epidermidis; S.epidermidis ORI_R1, mecA",4 µg/mL
same,MIC value,"S. epidermidis; S.epidermidis ORI_R2, mecA",4 µg/mL
same,MIC value,"S. epidermidis; S.epidermidis ORI_R3, mecA",2 µg/mL
same,MIC value,"S. epidermidis; S.epidermidis ORI_R4, mecA","0,25 µg/ml"
same,MIC value,"S. epidermidis; S.epidermidis TEI_R1, mecA","0,25 µg/ml"
same,MIC value,"S. epidermidis; S.epidermidis TEI_R2, mecA","0,125 µg/ml"
"CN[C@H](CC(C)C)C(=O)N[C@H]1C(=O)N[C@@H](CC(N)=O)C(=O)N[C@H]2C(=O)N[C@H]3C(=O)N[C@H](C(=O)N[C@H](C(=O)O)c4cc(O)cc(O)c4-c4cc3ccc4O)[C@H](O)c3ccc(c(Cl)c3)Oc3cc2cc(c3O[C@@H]2O[C@H](CO)[C@@H](O)[C@H](O)[C@H]2O[C@H]2C[C@](C)(N)[C@H](O)[C@H](C)O2)Oc2ccc(cc2Cl)[C@H]1O [VAN, vancomycin, reference compound]",MIC,"S. haemolyticus; S. haemolyticus mecA, 6 strains, read-out: Average MIC value",28 µg/mL
same,MIC,"S. haemolyticus; S.haemolyticus DALB_R1, mecA, read-out: MIC value",32 µg/mL
same,MIC,"S. haemolyticus; S.haemolyticus DALB_R2, mecA, read-out: MIC value",64 µg/mL
same,MIC,"S. haemolyticus; S.haemolyticus DALB_R3, mecA, read-out: MIC value",8 µg/mL
same,MIC,"S. haemolyticus; S.haemolyticus DALB_R4, mecA, read-out: MIC value",32 µg/mL
same,MIC,"S. haemolyticus; S.haemolyticus DALB_R5, mecA, read-out: MIC value",16 µg/mL
same,MIC,"S. haemolyticus; S.haemolyticus ORI_R1, mecA, read-out: MIC value",16 µg/mL
same,MIC,"E. faecalis; read-out: Average MIC value, E. faecalis VAN^R,TEI^R/VanA, 1 strain",> 64 µg/mL
same,MIC,"E. faecalis; read-out: Average MIC value, E. faecalis VAN^S, TEI^S, 2 strains",0.25 µg/mL
same,MIC,"E. faecalis; read-out: MIC value, E.faecalis JH2-2",0.25 µg/mL
same,MIC,"E. faecalis; read-out: MIC value, E.faecalis OG1RF",0.25 µg/mL
same,MIC,"E. faecalis; read-out: MIC value, E.faecalis V583, VAN,TEI/VanA",> 64 µg/mL
same,MIC,"S. aureus; ATCC 29213 / MSSA, read-out: MIC value, S. aureus ATCC29213, MSSA",1 µg/mL
same,MIC,"S. aureus; MRSA / USA300, read-out: MIC value, S. aureus USA300, CA-MRSA",0.25 µg/mL
same,MIC,"S. aureus; MRSA, read-out: Average MIC value, S. aureus CA-MRSA, 1 strain",0.25 µg/mL
same,MIC,"S. aureus; MRSA, read-out: Average MIC value, S. aureus MRSA, 7 strains",1.25 µg/mL
same,MIC,"S. aureus; MRSA, read-out: MIC value, S. aureus 73OL, MRSA",1 µg/mL
same,MIC,"S. aureus; MRSA, read-out: MIC value, S. aureus 214OL, MRSA",1 µg/mL
same,MIC,"S. aureus; MRSA, read-out: MIC value, S. aureus 1041OL, MRSA",1 µg/mL
same,MIC,"S. aureus; MRSA, read-out: MIC value, S. aureus A6918, MRSA",1 µg/mL
same,MIC,"S. aureus; MRSA, read-out: MIC value, S. aureus A6919, MRSA",0.25 µg/mL
same,MIC,"S. aureus; MRSA, read-out: MIC value, S. aureus Mu50, MRSA",4 µg/mL
same,MIC,"S. aureus; MRSA, read-out: MIC value, S. aureus N315, MRSA",0.5 µg/mL
same,MIC,"S. aureus; MSSA / NEWMAN, read-out: MIC value, S. aureus Newman, MSSA",0.5 µg/mL
same,MIC,"S. aureus; MSSA, read-out: Average MIC value, S. aureus MSSA, 4 strains",0.625 µg/mL
same,MIC,"S. aureus; MSSA, read-out: MIC value, S. aureus MSSA476, MSSA",0.5 µg/mL
same,MIC,"S. aureus; MSSA, read-out: MIC value, S. aureus SA564, MSSA",0.5 µg/mL
same,MIC,"S.pyogenes; read-out: MIC value, S.pyogenes H232",0.0625 µg/mL
same,MIC,"S.pyogenes; read-out: MIC value, S.pyogenes H550",0.0625 µg/mL
same,MIC,"S.pyogenes; read-out: MIC value, S.pyogenes H578",0.0625 µg/mL
same,MIC,"E. faecium; read-out: Average MIC value, E. faecium VAN^R,TEI^R/VanA, 8 strains",> 64 µg/mL
same,MIC,"E. faecium; read-out: Average MIC value, E. faecium VAN^S, TEI^S, 1 strain",0.25 µg/mL
same,MIC,"E. faecium; read-out: MIC value, E.faecium E335, VAN,TEI,LNZ/VanA",> 64 µg/mL
same,MIC,"E. faecium; read-out: MIC value, E.faecium E355, VAN,TEI,LNZ/VanA",> 64 µg/mL
same,MIC,"E. faecium; read-out: MIC value, E.faecium E832, VAN,TEI,LNZ/VanA",> 64 µg/mL
same,MIC,"E. faecium; read-out: MIC value, E.faecium E854, VAN,TEI,LNZ/VanA",> 64 µg/mL
same,MIC,"E. faecium; read-out: MIC value, E.faecium E859, VAN,TEI,LNZ/VanA",> 64 µg/mL
same,MIC,"E. faecium; read-out: MIC value, E.faecium E1114, VAN,TEI,LNZ/VanA",> 64 µg/mL
same,MIC,"E. faecium; read-out: MIC value, E.faecium E1131, VAN,TEI,LNZ/VanA",> 64 µg/mL
same,MIC,"E. faecium; read-out: MIC value, E.faecium E1132, VAN,TEI,LNZ/VanA",> 64 µg/mL
same,MIC,"E. faecium; read-out: MIC value, E.faecium TX0016",0.25 µg/mL
same,MIC,"S. epidermidis; read-out: Average MIC value, S. epidermidis mecA, 6 strains",6.67 µg/mL
same,MIC,"S. epidermidis; read-out: MIC value, S.epidermidis ORI_R1, mecA",8 µg/mL
same,MIC,"S. epidermidis; read-out: MIC value, S.epidermidis ORI_R2, mecA",8 µg/mL
same,MIC,"S. epidermidis; read-out: MIC value, S.epidermidis ORI_R3, mecA",8 µg/mL
same,MIC,"S. epidermidis; read-out: MIC value, S.epidermidis ORI_R4, mecA",4 µg/mL
same,MIC,"S. epidermidis; read-out: MIC value, S.epidermidis TEI_R1, mecA",4 µg/mL
same,MIC,"S. epidermidis; read-out: MIC value, S.epidermidis TEI_R2, mecA",8 µg/mL
